# Laboratory results taken from patent US12172995B2, “Substituted indole and indazole compounds” (BRISTOL-MYERS SQUIBB COMPANY, priority 2018, dated 2024).
# Columns and labels:
# Assay type in all cases: cell-based
# [1] = molecular target: T1, human TLR8 (Homo sapiens, UniProt Q9NR97); test: TLR8 inhibition reporter assay (HEK-Blue SEAP); conditions: HEK-Blue cells overexpressing human TLR8, stimulated with R848 15.9 μM, 22 hour incubation
# T1 construct: host or cells: HEK-Blue cells
# T1 sequence (Q9NR97 27-1041): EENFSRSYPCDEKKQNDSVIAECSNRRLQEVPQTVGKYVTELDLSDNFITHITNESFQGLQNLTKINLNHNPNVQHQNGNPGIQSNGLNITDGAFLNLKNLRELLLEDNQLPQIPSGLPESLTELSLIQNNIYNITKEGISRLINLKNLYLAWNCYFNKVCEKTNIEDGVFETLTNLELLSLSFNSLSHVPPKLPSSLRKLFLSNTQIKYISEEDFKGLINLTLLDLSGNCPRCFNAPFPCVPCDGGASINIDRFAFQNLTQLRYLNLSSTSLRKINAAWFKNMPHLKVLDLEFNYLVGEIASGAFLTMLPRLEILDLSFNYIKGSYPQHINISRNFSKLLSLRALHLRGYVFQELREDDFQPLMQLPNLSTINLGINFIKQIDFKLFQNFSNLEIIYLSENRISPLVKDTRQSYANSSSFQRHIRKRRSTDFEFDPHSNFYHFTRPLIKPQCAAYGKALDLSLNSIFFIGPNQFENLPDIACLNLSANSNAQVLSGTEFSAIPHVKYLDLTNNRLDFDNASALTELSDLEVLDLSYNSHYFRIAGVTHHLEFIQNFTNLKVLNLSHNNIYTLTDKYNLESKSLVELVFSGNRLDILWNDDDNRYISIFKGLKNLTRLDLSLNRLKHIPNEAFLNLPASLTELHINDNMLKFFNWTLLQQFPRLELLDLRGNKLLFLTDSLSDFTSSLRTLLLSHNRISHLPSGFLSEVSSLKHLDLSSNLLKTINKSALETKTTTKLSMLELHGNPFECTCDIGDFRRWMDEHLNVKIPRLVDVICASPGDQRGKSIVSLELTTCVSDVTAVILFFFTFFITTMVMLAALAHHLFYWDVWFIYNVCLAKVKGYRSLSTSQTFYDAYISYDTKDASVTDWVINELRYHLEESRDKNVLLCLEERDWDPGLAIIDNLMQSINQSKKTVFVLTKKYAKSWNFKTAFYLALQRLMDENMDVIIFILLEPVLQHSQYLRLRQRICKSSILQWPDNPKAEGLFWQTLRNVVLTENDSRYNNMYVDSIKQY
# Outline: (§1)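 HEK-Blue cells overexpressing the receptor, with an NF-κB/AP-1-driven SEAP reporter, were pre-treated with compound (0.05 nM to 50 μM) for 30 min at room temperature. Stimulation used gardiquimod 7.5 μM (TLR7), R848 15.9 μM (TLR8) or ODN2006 5 nM (TLR9), followed by 22 h at 37 °C.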
# [2] = molecular target: T2, human TLR9 (Homo sapiens, UniProt Q9NR96); test: TLR9 inhibition reporter assay (HEK-Blue SEAP); conditions: HEK-Blue cells overexpressing human TLR9, stimulated with ODN2006 5 nM, 22 hour incubation
# T2 construct: host or cells: HEK-Blue cells
# T2 sequence (Q9NR96 26-1032): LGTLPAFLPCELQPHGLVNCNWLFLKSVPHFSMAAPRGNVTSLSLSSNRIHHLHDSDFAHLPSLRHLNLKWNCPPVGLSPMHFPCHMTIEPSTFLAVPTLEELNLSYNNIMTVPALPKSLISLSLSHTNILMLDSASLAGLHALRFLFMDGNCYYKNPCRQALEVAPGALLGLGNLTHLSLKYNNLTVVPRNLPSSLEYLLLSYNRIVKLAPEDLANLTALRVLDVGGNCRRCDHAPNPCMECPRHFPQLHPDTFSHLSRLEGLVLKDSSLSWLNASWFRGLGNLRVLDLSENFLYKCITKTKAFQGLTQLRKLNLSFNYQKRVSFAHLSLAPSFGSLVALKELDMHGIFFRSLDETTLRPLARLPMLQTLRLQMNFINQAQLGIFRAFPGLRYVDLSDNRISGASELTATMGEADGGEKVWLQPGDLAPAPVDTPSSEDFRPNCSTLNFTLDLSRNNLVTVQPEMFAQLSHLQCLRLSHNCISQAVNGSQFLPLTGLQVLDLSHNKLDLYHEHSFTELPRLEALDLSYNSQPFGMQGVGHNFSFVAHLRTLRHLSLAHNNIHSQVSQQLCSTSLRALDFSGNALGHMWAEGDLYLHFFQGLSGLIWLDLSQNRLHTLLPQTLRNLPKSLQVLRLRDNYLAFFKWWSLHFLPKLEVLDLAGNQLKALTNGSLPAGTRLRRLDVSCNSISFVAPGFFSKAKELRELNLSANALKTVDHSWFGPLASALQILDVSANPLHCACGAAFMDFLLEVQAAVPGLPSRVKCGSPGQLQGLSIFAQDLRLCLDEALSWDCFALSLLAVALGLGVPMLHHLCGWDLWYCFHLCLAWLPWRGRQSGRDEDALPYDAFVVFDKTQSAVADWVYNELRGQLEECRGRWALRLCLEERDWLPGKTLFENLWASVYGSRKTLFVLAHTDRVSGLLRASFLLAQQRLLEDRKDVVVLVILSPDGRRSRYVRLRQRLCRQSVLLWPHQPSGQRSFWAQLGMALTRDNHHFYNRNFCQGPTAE
# Outline: as §1
# [3] = molecular target: T3, human TLR7 (Homo sapiens, UniProt Q9NYK1); test: TLR7 inhibition reporter assay (HEK-Blue SEAP); conditions: HEK-Blue cells overexpressing human TLR7, stimulated with gardiquimod 7.5 μM, 22 hour incubation
# T3 construct: host or cells: HEK-Blue cells
# T3 sequence (Q9NYK1 27-1049): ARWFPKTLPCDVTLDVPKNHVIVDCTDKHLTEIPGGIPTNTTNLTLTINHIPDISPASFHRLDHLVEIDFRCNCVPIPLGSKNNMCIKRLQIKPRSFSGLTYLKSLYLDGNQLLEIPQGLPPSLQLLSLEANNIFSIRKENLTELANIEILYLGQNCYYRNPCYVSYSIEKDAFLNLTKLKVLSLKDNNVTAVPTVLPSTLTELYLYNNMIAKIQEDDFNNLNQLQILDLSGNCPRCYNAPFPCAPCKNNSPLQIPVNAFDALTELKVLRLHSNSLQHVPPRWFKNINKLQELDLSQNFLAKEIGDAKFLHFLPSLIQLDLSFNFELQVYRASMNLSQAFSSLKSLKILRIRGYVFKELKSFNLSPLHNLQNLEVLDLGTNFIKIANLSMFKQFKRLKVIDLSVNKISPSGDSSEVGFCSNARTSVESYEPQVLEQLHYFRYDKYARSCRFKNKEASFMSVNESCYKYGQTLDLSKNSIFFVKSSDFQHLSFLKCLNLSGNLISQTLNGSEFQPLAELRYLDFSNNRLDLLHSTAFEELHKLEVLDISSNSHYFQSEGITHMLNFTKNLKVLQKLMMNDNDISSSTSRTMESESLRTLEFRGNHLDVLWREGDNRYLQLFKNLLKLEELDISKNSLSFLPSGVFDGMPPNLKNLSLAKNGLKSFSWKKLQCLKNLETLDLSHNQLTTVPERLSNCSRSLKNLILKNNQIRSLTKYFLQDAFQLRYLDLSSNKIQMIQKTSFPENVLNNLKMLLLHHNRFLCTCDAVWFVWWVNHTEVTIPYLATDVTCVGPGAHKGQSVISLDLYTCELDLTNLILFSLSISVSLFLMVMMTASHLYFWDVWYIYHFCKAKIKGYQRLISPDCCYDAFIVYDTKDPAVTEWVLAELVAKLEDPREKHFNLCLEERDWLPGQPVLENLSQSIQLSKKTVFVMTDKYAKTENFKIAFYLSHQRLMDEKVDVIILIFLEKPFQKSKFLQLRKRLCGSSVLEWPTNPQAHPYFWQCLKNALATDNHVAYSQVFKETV
# Outline: as §1
IC50 [1],IC50 [2],IC50 [3],Compound
0.4 nM,6730 nM,0.5 nM,"Cc1cc(-c2cc3[nH]nc(C4CCC(N5CC6(CCOC6)C5)CC4)c3cc2C(C)C)cn2ncnc12 (stereo not drawn) [Example 157, 2-(4-(5-isopropyl-6-(8-methyl-[1,2,4]triazolo[1,5-a]pyridin-6-yl)-1H-indazol-3-yl)cyclohexyl)-6-oxa-2-azaspiro[3.4]octane]"
0.2 nM,3950 nM,8.1 nM,"Cc1cc2c(C3CCC(NC4COC4)CC3)n[nH]c2cc1-c1cc(C)c2ncnn2c1 (single isomer, unassigned) [Example 34, N-(4-(5-methyl-6-(8-methyl-[1,2,4]triazolo[1,5-a]pyridin-6-yl)-1H-indazol-3-yl)cyclohexyl)oxetan-3-amine]"
1.9 nM,1660 nM,7.2 nM,"Cc1cc(-c2cc(C)c3ncnn3c2)cc2[nH]nc(OC3CCN(CC#N)CC3)c12 [Example 194, 2-(4-((4-methyl-6-(8-methyl-[1,2,4]triazolo[1,5-a]pyridin-6-yl)-1H-indazol-3-yl)oxy)piperidin-1-yl)acetonitrile]"
0.5 nM,928 nM,2.7 nM,"Cc1cc(-c2cc(C)c3ncnn3c2)cc2[nH]nc(OC3CCN(C)CC3)c12 [Example 177, 8-methyl-6-(4-methyl-3-((1-methylpiperidin-4-yl)oxy)-1H-indazol-6-yl)-[1,2,4]triazolo[1,5-a]pyridine]"
0.2 nM,39800 nM,7.2 nM,"CCc1cc2c(C3CCN(CCC#N)CC3)n[nH]c2cc1-c1cc(C)c2ncnn2c1 [Example 106, 3-(4-(5-ethyl-6-(8-methyl-[1,2,4]triazolo[1,5-a]pyridin-6-yl)-1H-indazol-3-yl)piperidin-1-yl)propanenitrile]"
0.2 nM,8900 nM,4.2 nM,"Cc1cc(-c2cc3[nH]nc(C4CCC(N5CCC(C)(O)C5)CC4)c3cc2C(C)C)cn2ncnc12 (single isomer, unassigned) [Example 166, 1-(4-(5-isopropyl-6-(8-methyl-[1,2,4]triazolo[1,5-a]pyridin-6-yl)-1H-indazol-3-yl)cyclohexyl)-3-methylpyrrolidin-3-ol]"
0.1 nM,20300 nM,1.5 nM,"Cc1cc(-c2cc3[nH]nc(C4CCN(CC(C)(C)O)CC4)c3cc2C(C)C)cn2ncnc12 [Example 113, 1-(4-(5-isopropyl-6-(8-methyl-[1,2,4]triazolo[1,5-a]pyridin-6-yl)-1H-indazol-3-yl)piperidin-1-yl)-2-methylpropan-2-ol]"
2.9 nM,3720 nM,5.3 nM,"COc1cc(-c2cc3[nH]nc(C4CCC(N(C)C)CC4)c3cc2C(C)C)cn2ncnc12 (single isomer, unassigned) [Example 141, 4-(5-isopropyl-6-(8-methoxy-[1,2,4]triazolo[1,5-a]pyridin-6-yl)-1H-indazol-3-yl)-N,N-dimethylcyclohexan-1-amine]"
3.8 nM,4420 nM,24.6 nM,"Cc1cc2c(C3CCN(C(=O)CN(C)C)CC3)n[nH]c2cc1-c1cc(C)c2ncnn2c1 [Example 20, 2-(dimethylamino)-1-(4-(5-methyl-6-(8-methyl-[1,2,4]triazolo[1,5-a]pyridin-6-yl)-1H-indazol-3-yl)piperidin-1-yl)ethan-1-one]"
0.2 nM,10800 nM,5.4 nM,"CCc1cc2c(C3CCC(NCC(=O)N(C)C)CC3)n[nH]c2cc1-c1cc(C)c2ncnn2c1 (stereo not drawn) [Example 95, 2-((4-(5-ethyl-6-(8-methyl-[1,2,4]triazolo[1,5-a]pyridin-6-yl)-1H-indazol-3-yl)cyclohexyl)amino)-N,N-dimethylacetamide]"
0.5 nM,11200 nM,3.4 nM,"COc1cc(-c2cc3[nH]nc(C4CCN(C(=O)CN(C)C)CC4)c3cc2C(C)C)cn2ncnc12 [Example 117, 2-(dimethylamino)-1-(4-(5-isopropyl-6-(8-methoxy-[1,2,4]triazolo[1,5-a]pyridin-6-yl)-1H-indazol-3-yl)piperidin-1-yl)ethan-1-one]"
0.7 nM,2820 nM,19.9 nM,"Cc1cc2c(C3CCC(N(C)C)CC3)n[nH]c2cc1-c1cc(C)c2ncnn2c1 (single isomer, unassigned) [Example 4, N,N-dimethyl-4-(5-methyl-6-(8-methyl-[1,2,4]triazolo[1,5-a]pyridin-6-yl)-1H-indazol-3-yl)cyclohexan-1-amine]"

Compound,IC50 [1],IC50 [2],IC50 [3]
"Cc1cc(-c2cc3[nH]nc(C4CCN(C5CCOCC5)CC4)c3cc2C(C)C)cn2ncnc12 [Example 116, 6-(5-isopropyl-3-(1-(tetrahydro-2H-pyran-4-yl)piperidin-4-yl)-1H-indazol-6-yl)-8-methyl-[1,2,4]triazolo[1,5-a]pyridine]",0.1 nM,6550 nM,0.6 nM
